“And” between values parts separate entries of the source, which are not always exact repeats. Identical values can stand only once. “Also recorded” adds a separate entry of the source.
Experiments:
Assay type in all cases: in vivo, rat (male Sprague-Dawley)
[1] = Daily body weight of intravenously infused rats
Protocol: (§1) Water was available ad libitum at all times.
(§2) The vein was then ligated dorsally to the catheter. […] Body weights were measured daily.
(§3) Infusate volume, oral food intake, body weight and urinary volume and total nitrogen were monitored daily for each rat. Infusate volume and food intake were determined by weighing the appropriate container at the start and end of each 24 hr. period. Measurements were recorded between 9 and 10 AM each day. At the end of the 7th day, rats were sacrificed, and blood and liver were harvested. Plasma was separated for measurement of free fatty acids, glucose, and ketone bodies. Liver was weighed and a sample was fixed in buffered formalin for gross histology.
(§4) The data were analyzed for significance by the one-way analysis of variance with repeated measures and comparing the effect of dietary treatment on each day. […] The null hypothesis was concluded invalid if p≤0.05. The analysis of variance was computed on a SAS statistical package.
(§5) This compound has an estimated energy density of 4.86 kcal/gram based on thermodynamic data from similar compounds.

[2] = Plasma free fatty acids, glucose and ketone bodies after 7 days of infusion; settings: for T.KB: total ketone bodies
Protocol: as §3, §4

[3] = Liver weight after 7 days of infusion; settings: for Liver/100 GM: as percentage of body weight
Protocol: as §3
The data were analyzed for significance by the one-way analysis of variance with repeated measures and comparing the effect of dietary treatment on each day. […] The null hypothesis was concluded invalid if p≤0.05. The analysis of variance was computed on a SAS statistical package. […]

[4] = Oral dietary nitrogen (food) intake of intravenously infused rats; settings: for Dietary Nitrogen Intake: Table 1, Example 2
Protocol: as §1, §2, §3, §4, §5

[5] = Table 5, Example 2, plasma, end of day 7, average of 7 rats
[6] = Table 5, Example 2, plasma, end of day 7, individual rat
[7] = Table 11, Example 4, plasma, average
[8] = Table 11, Example 4, plasma, individual rat

## OC[C@H]1OC(O)[C@H](O)[C@@H](O)[C@@H]1O (stereo partly drawn) [Glucose, glucose, reference compound]
[1]; Table 4, Example 2, day 1, average of 7 rats
  Daily Body Weight: 262 Grams
[1]; Table 4, Example 2, day 1, individual rat
  Daily Body Weight: 238 Grams and 217 Grams and 329 Grams and 236 Grams and 244 Grams and 286 Grams and 284 Grams
[1]; Table 4, Example 2, day 2, average of 7 rats
  Daily Body Weight: 257 Grams
[1]; Table 4, Example 2, day 2, individual rat
  Daily Body Weight: 234 Grams and 211 Grams and 298 Grams and 233 Grams and 248 Grams and 293 Grams and 281 Grams
[1]; Table 4, Example 2, day 3, average of 7 rats
  Daily Body Weight: 263 Grams
[1]; Table 4, Example 2, day 3, individual rat
  Daily Body Weight: 229 Grams and 209 Grams and 337 Grams and 231 Grams and 266 Grams and 282 Grams and 286 Grams
[1]; Table 4, Example 2, day 4, average of 7 rats
  Daily Body Weight: 259 Grams
[1]; Table 4, Example 2, day 4, individual rat
  Daily Body Weight: 232 Grams and 207 Grams and 315 Grams and 226 Grams and 246 Grams and 295 Grams and 291 Grams
[1]; Table 4, Example 2, day 5, average of 7 rats
  Daily Body Weight: 251 Grams
[1]; Table 4, Example 2, day 5, individual rat
  Daily Body Weight: 232 Grams and 212 Grams and 278 Grams and 222 Grams and 240 Grams and 279 Grams and 294 Grams
[1]; Table 4, Example 2, day 6, average of 7 rats
  Daily Body Weight: 255 Grams
[1]; Table 4, Example 2, day 6, individual rat
  Daily Body Weight: 257 Grams and 230 Grams and 274 Grams and 220 Grams and 238 Grams and 293 Grams
[1]; Table 4, Example 2, day 7, average of 7 rats
  Daily Body Weight: 249 Grams
[1]; Table 4, Example 2, day 7, individual rat
  Daily Body Weight: 245 Grams and 228 Grams and 251 Grams and 226 Grams and 230 Grams and 268 Grams and 297 Grams
[1]; Table 10, Example 4, day 0, average of 9 rats
  Daily Body Weight: 252 Grams
[1]; Table 10, Example 4, day 0, individual rat
  Daily Body Weight: 254 Grams and 288 Grams and 263 Grams and 251 Grams and 227 Grams and 260 Grams and 249 Grams and 233 Grams and 247 Grams
[1]; Table 10, Example 4, day 1, average of 9 rats
  Daily Body Weight: 249 Grams
[1]; Table 10, Example 4, day 1, individual rat
  Daily Body Weight: 247 Grams and 292 Grams and 256 Grams and 225 Grams and 259 Grams and 241 Grams and 227 Grams and 244 Grams
[1]; Table 10, Example 4, day 2, average of 9 rats
  Daily Body Weight: 252 Grams
[1]; Table 10, Example 4, day 2, individual rat
  Daily Body Weight: 261 Grams and 290 Grams and 267 Grams and 246 Grams and 224 Grams and 259 Grams and 237 Grams and 235 Grams and 245 Grams
[1]; Table 10, Example 4, day 3, average of 9 rats
  Daily Body Weight: 251 Grams
[1]; Table 10, Example 4, day 3, individual rat
  Daily Body Weight: 260 Grams and 292 Grams and 269 Grams and 240 Grams and 227 Grams and 264 Grams and 244 Grams and 234 Grams and 229 Grams
[1]; Table 10, Example 4, day 4, average of 9 rats
  Daily Body Weight: 258 Grams
[1]; Table 10, Example 4, day 4, individual rat
  Daily Body Weight: 263 Grams and 297 Grams and 273 Grams and 239 Grams and 234 Grams and 282 Grams and 248 Grams and 245 Grams
[1]; Table 10, Example 4, day 5, average of 9 rats
  Daily Body Weight: 257 Grams
[1]; Table 10, Example 4, day 5, individual rat
  Daily Body Weight: 268 Grams and 298 Grams and 270 Grams and 237 Grams and 239 Grams and 250 Grams and 241 Grams
[1]; Table 10, Example 4, day 6, average of 9 rats
  Daily Body Weight: 263 Grams
[1]; Table 10, Example 4, day 6, individual rat
  Daily Body Weight: 263 Grams and 302 Grams and 267 Grams and 241 Grams and 259 Grams and 268 Grams and 254 Grams and 245 Grams and 271 Grams
[1]; Table 10, Example 4, day 7, average of 9 rats
  Daily Body Weight: 259 Grams
[1]; Table 10, Example 4, day 7, individual rat
  Daily Body Weight: 264 Grams and 305 Grams and 272 Grams and 237 Grams and 247 Grams and 261 Grams and 249 Grams and 244 Grams and 255 Grams
[2]; [5]
  ACAC: 0.088 mmol/L
  BOHB: 0.505 mmol/L
  FFa: 0.564 mmol/L
  Glucose: 185.423 mg/dL
  T.KB: 0.593 mmol/L
[2]; [6]
  ACAC: 0.020 mmol/L and 0.066 mmol/L and 0.194 mmol/L and 0.096 mmol/L and 0.017 mmol/L and 0.031 mmol/L
  BOHB: 0.385 mmol/L and 0.476 mmol/L and 0.533 mmol/L and 0.332 mmol/L and 0.358 mmol/L and 1.086 mmol/L and 0.363 mmol/L
  FFa: 0.337 mmol/L and 0.976 mmol/L and 0.850 mmol/L and 0.816 mmol/L and 0.168 mmol/L and 0.483 mmol/L and 0.316 mmol/L
  Glucose: 196.840 mg/dL and 161.300 mg/dL and 162.620 mg/dL and 164.800 mg/dL and 237.100 mg/dL and 228.500 mg/dL
  T.KB: 0.405 mmol/L and 0.542 mmol/L and 0.727 mmol/L and 0.427 mmol/L and 0.375 mmol/L and 1.280 mmol/L and 0.394 mmol/L
[2]; [7]
  ACAC: 0.029 mmol/L
  BOHB: 0.512 mmol/L
  Glucose: 214.433 mg/dL
  Total FFA: 0.341 mmol/L
[2]; [8]
  ACAC: 0.0085 mmol/L and 0.1195 mmol/L and 0.0177 mmol/L and 0.0095 mmol/L and 0.0038 mmol/L and 0.0145 mmol/L
  BOHB: 0.5282 mmol/L and 0.5088 mmol/L and 0.5936 mmol/L and 0.2075 mmol/L and 0.6958 mmol/L and 0.6475 mmol/L and 0.3727 mmol/L and 0.4066 mmol/L and 0.651 mmol/L
  Glucose: 263.3 mg/dL and 203.5 mg/dL and 429.3 mg/dL and 208 mg/dL and 284.8 mg/dL and 163.5 mg/dL and 124.9 mg/dL and 116.6 mg/dL
  Total FFA: 0.327 mmol/L and 0.231 mmol/L and 0.462 mmol/L and 0.434 mmol/L and 0.525 mmol/L and 0.303 mmol/L and 0.206 mmol/L and 0.395 mmol/L and 0.19 mmol/L
[2]; in words, end of day 7
  blood / plasma glucose: significantly elevatea plasma glucose; also recorded: higher for glucose infused rats than for the other two groups
[2]; in words, plasma, end of day 7
  free fatty acid concentration: not different for the three groups
[3]; Table 5, Example 2, average of 7 rats
  Liver/100 GM: 3.220
[3]; Table 5, Example 2, individual rat
  Liver/100 GM: 2.600 and 3.333 and 3.255 and 4.208 and 3.057 and 3.004 and 3.081
[3]; Table 5, Example 2, end of day 7, average of 7 rats
  Liver Wt.: 7.983 Grams
[3]; Table 5, Example 2, end of day 7, individual rat
  Liver Wt.: 6.37 Grams and 7.6 Grams and 8.17 Grams and 9.51 Grams and 7.03 Grams and 8.05 Grams and 9.15 Grams
[3]; Table 11, Example 4, average
  Liver/100 GM: 3.636
[3]; Table 11, Example 4, individual rat
  Liver/100 GM: 3.116 and 3.748 and 3.4975 and 3.789 and 4.01 and 4.617 and 3.403 and 3.377 and 3.169
[3]; Table 11, Example 4, end of day 7, average
  Liver Wt.: 9.433
[3]; Table 11, Example 4, end of day 7, individual rat
  Liver Wt.: 8.2264 and 11.4311 and 9.5132 and 8.9798 and 9.9056 and 12.0506 and 8.4742 and 8.2387 and 8.0815
[3]; in words, end of day 7
  liver weight and percentage liver weight: similarity between glucose infused and experimental compound infused rats liver
[4]; day 1, individual rat
  Dietary Nitrogen Intake: 111.86 MG N and 164.5 MG N and 486.92 MG N and 269.78 MG N
[4]; day 2, individual rat
  Dietary Nitrogen Intake: 217.14 MG N and 85.54 MG N and 427.7 MG N and 144.76 MG N and 493.5 MG N and 526.4 MG N
[4]; day 3, individual rat
  Dietary Nitrogen Intake: 151.34 MG N and 118.44 MG N and 559.3 MG N and 52.64 MG N and 250.04 MG N and 276.36 MG N and 631.68 MG N
[4]; day 4, individual rat
  Dietary Nitrogen Intake: 131.6 MG N and 118.44 MG N and 572.46 MG N and 98.7 MG N and 394.8 MG N and 414.54 MG N and 526.4 MG N
[4]; day 5, individual rat
  Dietary Nitrogen Intake: 236.88 MG N and 230.3 MG N and 407.96 MG N and 157.92 MG N and 223.72 MG N and 217.14 MG N and 559.3 MG N
[4]; day 6, average of 7 rats
  Dietary Nitrogen Intake: 303 MG N
[4]; day 6, individual rat
  Dietary Nitrogen Intake: 118.44 MG N and 105.28 MG N and 243.46 MG N and 342.16 MG N and 289.52 MG N and 375.06 MG N and 644.84 MG N
[4]; day 7, individual rat
  Dietary Nitrogen Intake: 177.66 MG N and 157.92 MG N and 269.78 MG N and 526.4 MG N and 210.56 MG N and 473.76 MG N and 664.58 MG N
[4]; in words, Example 4
  appetite depression: glucose induced better appetite depression than did the experimental compound
[4]; in words, vs saline and other groups, 7 days
  differences in dietary nitrogen intake among the three groups: no differences in dietary nitrogen intake among the three groups
